# Key:
# Format in all cases: biochemical
# CDK2 (h) (cycA) = CDK2 (h) (cycA) (Homo sapiens (Human), UniProt P24941); assay: Kinase selectivity panel: CDK2 (h) (cycA); settings: 10 μM in duplicate, read-out: % inhibition of control values
# Experimental: (§1) (a) Compounds 1 and 2 were tested against a panel of 60 kinases in order to assess their selectivity. The assays were chosen taking into consideration the diversity of assay families.
# (§2) Tested kinases were representative of following kinase sub-families: • protein-serine/threonine kinases; • protein-tyrosine kinases; • other kinases; and • atypical kinases.
# (§3) Human recombinant kinases were incubated in the presence of specific peptide substrates plus ATP for different times (10, 15, 30, 60 or 90 minutes) at 22° C. Phosphorylated substrate was detected by LANCE or HTRF technology (CISBIO, MA, USA). The compounds were tested at 10 μM in duplicate.
# (§4) The results are expressed as a percentage of inhibition of control specific activity obtained in the presence of the test compounds and are reported in the following Table 5.
# (§5) (b) Compounds 3, 8, 29 and 31 were tested against the same panel of 60 kinases under the same conditions described above for compounds 1 and 2.
# (§6) The results are expressed as a percent of inhibition of control specific activity obtained in the presence of the test compounds and are reported in the following Table 6.
# JAK2 (h) = JAK2 (h) (Homo sapiens (Human), UniProt O60674); assay: Kinase selectivity panel: JAK2 (h); settings: 10 μM in duplicate, read-out: % inhibition of control values
# Experimental: as §1, §2, §3, §4, §5, §6
# Pim1 kinase (h) = Pim1 kinase (h) (Homo sapiens (Human), UniProt P11309); assay: Kinase selectivity panel: Pim1 kinase (h); settings: 10 μM in duplicate, read-out: % inhibition of control values
# Experimental: as §1, §2, §3, §4, §5, §6
# CaMK4 (h) = CaMK4 (h) (Homo sapiens (Human), UniProt Q16566); assay: Kinase selectivity panel: CaMK4 (h); settings: 10 μM in duplicate, read-out: % inhibition of control values
# Experimental: as §1, §2, §3, §4, §5, §6
# PAK1 (h) = PAK1 (h) (Homo sapiens (Human), UniProt Q13153); assay: Kinase selectivity panel: PAK1 (h); settings: 10 μM in duplicate, read-out: % inhibition of control values
# Experimental: as §1, §2, §3, §4, §5, §6
# AurB/Aur1 kinase (h) = AurB/Aur1 kinase (h) (Homo sapiens (Human), UniProt Q96GD4); assay: Kinase selectivity panel: AurB/Aur1 kinase (h); settings: 10 μM in duplicate, read-out: % inhibition of control values
# AurB/Aur1 kinase (h), sequence (Q96GD4 whole entry): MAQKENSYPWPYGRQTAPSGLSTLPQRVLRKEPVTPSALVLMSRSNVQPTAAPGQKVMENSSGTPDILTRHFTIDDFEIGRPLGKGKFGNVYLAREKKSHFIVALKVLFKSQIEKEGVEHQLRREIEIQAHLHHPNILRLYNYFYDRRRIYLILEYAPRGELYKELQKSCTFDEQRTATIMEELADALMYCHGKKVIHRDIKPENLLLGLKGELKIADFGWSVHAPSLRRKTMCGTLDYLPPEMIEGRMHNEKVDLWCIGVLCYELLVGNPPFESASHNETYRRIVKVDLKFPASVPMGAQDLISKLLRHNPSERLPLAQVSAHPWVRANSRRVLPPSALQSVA
# Experimental: as §1, §2, §3, §4, §5, §6
# JAK1 (h) = JAK1 (h) (Homo sapiens (Human), UniProt P23458); assay: Kinase selectivity panel: JAK1 (h); settings: 10 μM in duplicate, read-out: % inhibition of control values
# Experimental: as §1, §2, §3, §4, §5, §6
# human GSK-3β = human GSK-3β (Homo sapiens (Human), UniProt P49841); assay: Activity on human GSK-3β, LANCE substrate phosphorylation assay; settings: for inhibition at 10 µM: in duplicate, first screening assay
# human GSK-3β, sequence (P49841 whole entry): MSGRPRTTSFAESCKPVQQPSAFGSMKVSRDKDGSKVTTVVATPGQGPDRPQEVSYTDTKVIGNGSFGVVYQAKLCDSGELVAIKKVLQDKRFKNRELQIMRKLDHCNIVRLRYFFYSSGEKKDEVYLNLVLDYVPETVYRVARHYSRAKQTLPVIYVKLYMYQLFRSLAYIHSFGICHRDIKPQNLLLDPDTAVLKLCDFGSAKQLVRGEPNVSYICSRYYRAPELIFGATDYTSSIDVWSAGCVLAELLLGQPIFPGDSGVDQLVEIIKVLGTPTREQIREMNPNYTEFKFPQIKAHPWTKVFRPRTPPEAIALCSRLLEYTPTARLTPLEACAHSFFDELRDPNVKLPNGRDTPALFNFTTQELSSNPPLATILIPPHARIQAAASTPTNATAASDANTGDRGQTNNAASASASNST
# Experimental: Activity on human GSK-3β was assessed using the following methods (according to Meijer et al., Chem. Biol., 2003-10:1255-1266).
# In a first screening assay, compounds were tested in duplicate at a concentration of 10 μM.
# Human recombinant enzyme GSK-3β was incubated for 90 minutes at 22° C. in the presence of compounds or vehicle in a reaction buffer containing ATP plus 100 nM unphosphorylated specific substrate peptide (Ulight-[…] K-amide). Substrate phosphorylation was measured by LANCE technology (PerkinElmer, Conn., USA).
# In a second assay, the same compounds were assayed at five concentrations ranging from 100 μM to 10 nM with ten-fold dilutions in duplicate.
# The IC50 values (concentration causing a half maximal inhibition of control specific activity), reported in table 4, were determined by non-linear regression analysis of the inhibition curves generated with mean replicate values using Hill equation curve fitting.
# CK1alpha (h) = CK1alpha (h) (Homo sapiens (Human), UniProt P48729); assay: Kinase selectivity panel: CK1alpha (h); settings: 10 μM in duplicate, read-out: % inhibition of control values
# Experimental: as §1, §2, §3, §4, §5, §6
# DLK1 (h) (MAP3K12) = DLK1 (h) (MAP3K12) (Homo sapiens (Human), UniProt Q12852); assay: Kinase selectivity panel: DLK1 (h) (MAP3K12); settings: 10 μM in duplicate, read-out: % inhibition of control values
# Experimental: as §1, §2, §3, §4, §5, §6
# c-Met kinase (h) = c-Met kinase (h) (Homo sapiens (Human), UniProt P08581); assay: Kinase selectivity panel: c-Met kinase (h); settings: 10 μM in duplicate, read-out: % inhibition of control values
# c-Met kinase (h), sequence (P08581 25-1390): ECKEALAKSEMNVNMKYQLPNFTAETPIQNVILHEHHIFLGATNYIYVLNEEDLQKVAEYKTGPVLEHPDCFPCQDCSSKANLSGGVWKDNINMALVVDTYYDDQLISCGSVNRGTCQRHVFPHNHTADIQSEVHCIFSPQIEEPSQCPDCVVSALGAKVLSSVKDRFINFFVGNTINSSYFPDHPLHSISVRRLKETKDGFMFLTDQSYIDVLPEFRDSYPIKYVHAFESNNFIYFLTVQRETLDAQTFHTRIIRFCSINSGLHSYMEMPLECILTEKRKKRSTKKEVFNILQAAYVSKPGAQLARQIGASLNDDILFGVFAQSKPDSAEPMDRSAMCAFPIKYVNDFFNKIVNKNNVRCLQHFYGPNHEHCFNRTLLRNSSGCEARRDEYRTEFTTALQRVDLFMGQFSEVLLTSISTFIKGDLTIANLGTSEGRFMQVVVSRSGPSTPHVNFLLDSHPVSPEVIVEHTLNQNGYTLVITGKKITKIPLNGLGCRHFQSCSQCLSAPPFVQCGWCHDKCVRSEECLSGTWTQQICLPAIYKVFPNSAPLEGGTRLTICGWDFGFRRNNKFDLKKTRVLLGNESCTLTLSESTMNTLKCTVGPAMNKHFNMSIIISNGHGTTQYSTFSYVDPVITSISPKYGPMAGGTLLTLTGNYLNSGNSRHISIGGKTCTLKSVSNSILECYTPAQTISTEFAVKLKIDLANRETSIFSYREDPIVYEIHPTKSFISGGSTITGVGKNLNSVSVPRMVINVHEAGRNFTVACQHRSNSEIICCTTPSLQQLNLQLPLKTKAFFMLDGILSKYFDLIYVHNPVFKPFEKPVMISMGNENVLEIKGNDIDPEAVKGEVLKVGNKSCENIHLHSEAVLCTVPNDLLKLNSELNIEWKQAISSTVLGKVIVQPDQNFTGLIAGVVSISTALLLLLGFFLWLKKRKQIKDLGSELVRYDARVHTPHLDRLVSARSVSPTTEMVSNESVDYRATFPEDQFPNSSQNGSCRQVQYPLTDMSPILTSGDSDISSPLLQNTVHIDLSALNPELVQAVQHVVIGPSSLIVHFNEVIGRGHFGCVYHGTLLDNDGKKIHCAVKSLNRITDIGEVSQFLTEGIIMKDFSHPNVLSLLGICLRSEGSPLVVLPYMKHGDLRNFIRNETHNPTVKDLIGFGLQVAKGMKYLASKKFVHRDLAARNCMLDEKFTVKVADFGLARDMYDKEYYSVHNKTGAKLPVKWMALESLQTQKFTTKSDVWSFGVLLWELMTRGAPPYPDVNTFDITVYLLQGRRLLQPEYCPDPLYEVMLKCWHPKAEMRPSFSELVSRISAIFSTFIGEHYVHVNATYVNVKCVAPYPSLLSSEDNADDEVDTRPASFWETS
# Experimental: as §1, §2, §3, §4, §5, §6
# EphB2 kinase (h) = EphB2 kinase (h) (Homo sapiens (Human), UniProt P29323); assay: Kinase selectivity panel: EphB2 kinase (h); settings: 10 μM in duplicate, read-out: % inhibition of control values
# Experimental: as §1, §2, §3, §4, §5, §6
# IRAK4 (h) = IRAK4 (h) (Homo sapiens (Human), UniProt Q9NWZ3); assay: Kinase selectivity panel: IRAK4 (h); settings: 10 μM in duplicate, read-out: % inhibition of control values
# Experimental: as §1, §2, §3, §4, §5, §6
# CDK5/p35 (h) = CDK5/p35 (h) (Homo sapiens (Human), UniProt Q00535); assay: Kinase selectivity panel: CDK5/p35 (h); settings: 10 μM in duplicate, read-out: % inhibition of control values
# CDK5/p35 (h), sequence (Q00535 whole entry): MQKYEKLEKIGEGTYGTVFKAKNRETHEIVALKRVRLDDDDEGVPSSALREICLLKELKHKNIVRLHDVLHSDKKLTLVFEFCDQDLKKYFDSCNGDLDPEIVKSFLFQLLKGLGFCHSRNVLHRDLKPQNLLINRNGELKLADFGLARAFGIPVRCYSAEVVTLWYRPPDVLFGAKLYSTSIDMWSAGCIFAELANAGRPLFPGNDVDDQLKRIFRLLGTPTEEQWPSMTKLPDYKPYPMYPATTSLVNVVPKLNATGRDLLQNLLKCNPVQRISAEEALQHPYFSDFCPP
# CDK5/p35 (h), sequence (Q15078 whole entry partner): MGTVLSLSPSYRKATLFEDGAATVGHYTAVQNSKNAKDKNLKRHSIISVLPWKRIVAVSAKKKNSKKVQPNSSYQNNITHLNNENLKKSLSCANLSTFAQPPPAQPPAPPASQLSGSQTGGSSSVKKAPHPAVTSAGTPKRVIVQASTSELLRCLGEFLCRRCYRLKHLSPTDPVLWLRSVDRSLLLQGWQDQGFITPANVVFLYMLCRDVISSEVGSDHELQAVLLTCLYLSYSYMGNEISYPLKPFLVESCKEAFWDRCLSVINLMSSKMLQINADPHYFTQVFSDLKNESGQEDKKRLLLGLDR
# Experimental: as §1, §2, §3, §4, §5, §6
# Src kinase (h) = Src kinase (h) (Homo sapiens (Human), UniProt P12931); assay: Kinase selectivity panel: Src kinase (h); settings: 10 μM in duplicate, read-out: % inhibition of control values
# Experimental: as §1, §2, §3, §4, §5, §6
# TRKA (h) = TRKA (h) (Homo sapiens (Human), UniProt P04629); assay: Kinase selectivity panel: TRKA (h); settings: 10 μM in duplicate, read-out: % inhibition of control values
# Experimental: as §1, §2, §3, §4, §5, §6
# CHK1 (h) = CHK1 (h) (Homo sapiens (Human), UniProt O14757); assay: Kinase selectivity panel: CHK1 (h); settings: 10 μM in duplicate, read-out: % inhibition of control values
# Experimental: as §1, §2, §3, §4, §5, §6
# Akt1/PKBalpha (h) = Akt1/PKBalpha (h) (Homo sapiens (Human), UniProt P31749); assay: Kinase selectivity panel: Akt1/PKBalpha (h); settings: 10 μM in duplicate, read-out: % inhibition of control values
# Experimental: as §1, §2, §3, §4, §5, §6
# PhKgamma 2 (h) = PhKgamma 2 (h) (Homo sapiens (Human), UniProt P15735); assay: Kinase selectivity panel: PhKgamma 2 (h); settings: 10 μM in duplicate, read-out: % inhibition of control values
# PhKgamma 2 (h), sequence (P15735 whole entry): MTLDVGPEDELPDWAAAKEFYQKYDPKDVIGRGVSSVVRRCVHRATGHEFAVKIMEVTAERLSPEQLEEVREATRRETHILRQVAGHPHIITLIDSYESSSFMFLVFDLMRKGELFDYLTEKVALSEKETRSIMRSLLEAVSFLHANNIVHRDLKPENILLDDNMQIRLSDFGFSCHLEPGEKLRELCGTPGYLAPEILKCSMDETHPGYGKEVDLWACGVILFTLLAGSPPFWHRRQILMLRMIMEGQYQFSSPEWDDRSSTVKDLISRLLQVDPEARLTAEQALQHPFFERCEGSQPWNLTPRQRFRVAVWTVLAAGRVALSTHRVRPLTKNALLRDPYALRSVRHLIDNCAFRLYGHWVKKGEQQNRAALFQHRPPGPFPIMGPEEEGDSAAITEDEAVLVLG
# Experimental: as §1, §2, §3, §4, §5, §6
# PKCbeta 1 (h) = PKCbeta 1 (h) (Homo sapiens (Human), UniProt P05771); assay: Kinase selectivity panel: PKCbeta 1 (h); settings: 10 μM in duplicate, read-out: % inhibition of control values
# Experimental: as §1, §2, §3, §4, §5, §6
# GSK3beta (h) = GSK3beta (h) (Homo sapiens (Human), UniProt P49841); assay: Kinase selectivity panel: GSK3beta (h); settings: GSK3beta (h); 10 μM in duplicate; read-out: % inhibition of control values
# GSK3beta (h), sequence (P49841 whole entry): as the sequence (P49841 whole entry) above
# Experimental: as §1, §2, §3, §4, §6
# p38alpha kinase (h) = p38alpha kinase (h) (Homo sapiens (Human), UniProt Q16539); assay: Kinase selectivity panel: p38alpha kinase (h); settings: 10 μM in duplicate, read-out: % inhibition of control values
# p38alpha kinase (h), sequence (Q16539 whole entry): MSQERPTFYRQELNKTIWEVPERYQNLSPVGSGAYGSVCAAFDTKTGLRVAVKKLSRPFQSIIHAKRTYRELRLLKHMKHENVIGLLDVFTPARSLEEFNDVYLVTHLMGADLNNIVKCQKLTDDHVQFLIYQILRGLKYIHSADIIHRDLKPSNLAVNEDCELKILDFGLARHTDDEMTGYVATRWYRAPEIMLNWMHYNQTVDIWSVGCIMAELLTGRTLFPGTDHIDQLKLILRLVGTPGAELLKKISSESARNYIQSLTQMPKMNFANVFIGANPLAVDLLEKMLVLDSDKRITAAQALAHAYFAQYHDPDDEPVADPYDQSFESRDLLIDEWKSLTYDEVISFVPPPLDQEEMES
# Experimental: as §1, §2, §3, §4, §5, §6
# MAPKAPK2 (h) = MAPKAPK2 (h) (Homo sapiens (Human), UniProt P49137); assay: Kinase selectivity panel: MAPKAPK2 (h); settings: 10 μM in duplicate, read-out: % inhibition of control values
# Experimental: as §1, §2, §3, §4, §5, §6
# DYRK1a (h) = DYRK1a (h) (Homo sapiens (Human), UniProt Q13627); assay: Kinase selectivity panel: DYRK1a (h); settings: 10 μM in duplicate, read-out: % inhibition of control values
# Experimental: as §1, §2, §3, §4, §5, §6
# MYT1 kinase (h) = MYT1 kinase (h) (Homo sapiens (Human), UniProt Q99640); assay: Kinase selectivity panel: MYT1 kinase (h); settings: 10 μM in duplicate, read-out: % inhibition of control values
# Experimental: as §1, §2, §3, §4, §5, §6
# Ret kinase (h) = Ret kinase (h) (Homo sapiens (Human), UniProt P07949); assay: Kinase selectivity panel: Ret kinase (h); settings: 10 μM in duplicate, read-out: % inhibition of control values
# Experimental: as §1, §2, §3, §4, §5, §6
# FGFR4 kinase (h) = FGFR4 kinase (h) (Homo sapiens (Human), UniProt P22455); assay: Kinase selectivity panel: FGFR4 kinase (h); settings: 10 μM in duplicate, read-out: % inhibition of control values
# FGFR4 kinase (h), sequence (P22455 22-802): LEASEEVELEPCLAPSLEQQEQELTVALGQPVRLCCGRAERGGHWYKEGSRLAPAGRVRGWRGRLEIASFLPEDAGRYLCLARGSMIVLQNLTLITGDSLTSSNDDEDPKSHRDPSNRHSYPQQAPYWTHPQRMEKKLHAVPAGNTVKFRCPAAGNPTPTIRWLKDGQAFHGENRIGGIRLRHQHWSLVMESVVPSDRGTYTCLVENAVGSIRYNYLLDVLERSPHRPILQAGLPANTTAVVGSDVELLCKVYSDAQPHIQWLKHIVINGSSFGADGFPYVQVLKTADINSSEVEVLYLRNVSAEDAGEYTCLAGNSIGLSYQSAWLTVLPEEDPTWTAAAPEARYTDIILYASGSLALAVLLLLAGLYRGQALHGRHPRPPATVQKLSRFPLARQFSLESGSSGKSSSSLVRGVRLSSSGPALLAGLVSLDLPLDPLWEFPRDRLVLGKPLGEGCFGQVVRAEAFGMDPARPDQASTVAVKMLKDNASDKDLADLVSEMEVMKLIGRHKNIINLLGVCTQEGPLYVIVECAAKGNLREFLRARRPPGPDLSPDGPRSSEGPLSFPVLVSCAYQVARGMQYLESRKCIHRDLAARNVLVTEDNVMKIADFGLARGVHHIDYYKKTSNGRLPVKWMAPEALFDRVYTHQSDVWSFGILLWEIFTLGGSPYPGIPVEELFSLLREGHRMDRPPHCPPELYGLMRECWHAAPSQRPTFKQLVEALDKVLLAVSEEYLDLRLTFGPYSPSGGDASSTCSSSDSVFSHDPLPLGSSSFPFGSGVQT
# Experimental: as §1, §2, §3, §4, §5, §6
# Abl kinase (h) = Abl kinase (h) (Homo sapiens (Human), UniProt P00519); assay: Kinase selectivity panel: Abl kinase (h); settings: 10 μM in duplicate, read-out: % inhibition of control values
# Experimental: as §1, §2, §3, §4, §5, §6
# PKCgamma (h) = PKCgamma (h) (Homo sapiens (Human), UniProt P05129); assay: Kinase selectivity panel: PKCgamma (h); settings: 10 μM in duplicate, read-out: % inhibition of control values
# Experimental: as §1, §2, §3, §4, §5, §6
inhibition at 10 µM (CDK2 (h) (cycA)),inhibition at 10 µM (JAK2 (h)),inhibition at 10 µM (Pim1 kinase (h)),inhibition at 10 µM (CaMK4 (h)),inhibition at 10 µM (PAK1 (h)),inhibition at 10 µM (AurB/Aur1 kinase (h)),inhibition at 10 µM (JAK1 (h)),inhibition at 10 µM (human GSK-3β),inhibition at 10 µM (CK1alpha (h)),inhibition at 10 µM (DLK1 (h) (MAP3K12)),inhibition at 10 µM (c-Met kinase (h)),inhibition at 10 µM (EphB2 kinase (h)),inhibition at 10 µM (IRAK4 (h)),inhibition at 10 µM (CDK5/p35 (h)),inhibition at 10 µM (Src kinase (h)),inhibition at 10 µM (TRKA (h)),inhibition at 10 µM (CHK1 (h)),inhibition at 10 µM (Akt1/PKBalpha (h)),inhibition at 10 µM (PhKgamma 2 (h)),inhibition at 10 µM (PKCbeta 1 (h)),SMILES,further results
21%,0%,12%,15%,0%,0%,4%,94%,0%,0%,0%,0%,0%,9%,0%,0%,0%,0%,1%,0%,COc1ccc2[nH]nc(C(=O)NCC3CCN(CCC(=O)O)CC3)c2c1 [Compound 3],inhibition at 10 µM (GSK3beta (h)): 89%; inhibition at 10 µM (p38alpha kinase (h)): 0%; inhibition at 10 µM (MAPKAPK2 (h)): 0%; inhibition at 10 µM (DYRK1a (h)): 51%; inhibition at 10 µM (MYT1 kinase (h)): 2%; inhibition at 10 µM (Ret kinase (h)): 0%; inhibition at 10 µM (FGFR4 kinase (h)): 0%; inhibition at 10 µM (Abl kinase (h)): 0%; inhibition at 10 µM (PKCgamma (h)): 2%
11%,0%,2%,0%,0%,6%,0%,85%,12%,0%,0%,7%,8%,13%,6%,0%,8%,4%,1%,1%,"COCCN1CCC(CNC(=O)c2n[nH]c3ccc(OC)cc23)CC1 [Compound 2, 5-methoxy-N-{[1-(2-methoxyethyl)-piperidin-4-yl]methyl}-1H-indazole-3-carboxamide]","IC50 (human GSK-3β; compounds 1 to 15, LANCE assay, five concentrations 100 μM to 10 nM): 870 nM; inhibition at 10 µM (GSK3beta (h)): 90%; inhibition at 10 µM (p38alpha kinase (h)): 0%; inhibition at 10 µM (MAPKAPK2 (h)): 0%; inhibition at 10 µM (DYRK1a (h)): 56%; inhibition at 10 µM (MYT1 kinase (h)): 1%; inhibition at 10 µM (Ret kinase (h)): 0%; inhibition at 10 µM (FGFR4 kinase (h)): 0%; inhibition at 10 µM (Abl kinase (h)): 0%; inhibition at 10 µM (PKCgamma (h)): 0%"

# — US9611249B2, “1H-indazole-3-carboxamide compounds as glycogen synthase kinase 3 beta inhibitors” (AZIENDE CHIMICHE RIUNITE ANGELINI FRANCESCO A.C.R.A.F. …, priority 2012, dated 2017)
